In brackets after ≈: the same amount, converted by molar mass. Read-outs that look alike come from different tables or passages of the source. Bridge positions count the residues as written; N and C are the ends. Ends that are not written are not given here. Peptide text beside a SMILES is read from it.
What was measured:
[1] = tested on: E. coli ATCC 25922; details: for MIC-E. coli (μM) 25922: Table 6; for MIC-E.Coli (μM) 25622: Table 9 lower part, c1
[2] = tested on: X. fastidiosa (PD strain)
[3] = tested on: Salmonella; details: for MIC-human (μm) Salmonella: Table 9 lower part, c4
[4] = tested on: Pseudomonas WT 27853; details: for MIC-human (μm) Pseudomonas WT 27853: Table 9 lower part, c5
[5] = tested on: human erythrocytes
[6] = tested on: HL60 cells
[7] = tested on: N. benthamiana mesophyll protoplasts
[8] = tested on: E.Coli 14028; details: Table 9 lower part, c2
[9] = tested on: P11-resistant E. coli ATCC 25922
[10] = tested on: P11-resistant E. coli BL21
[11] = tested on: X. fastidiosa (Xf) in infected grapevines; details: in vivo
[12] = tested on: Pseudomonas Resistant BAA-2114
[13] = tested on: Xanthomonas Perforans BAA983
[14] = tested on: Xanthomonas Euvesicatoria 11633
[15] = tested on: human and plant gram-negative bacteria
[16] = tested on: human cells (red blood cells, immune cells HL-60, lung/skin epithelial cells)
[17] = tested on: E. coli K12; details: Table 3, K12-WT
[18] = tested on: P11-resistant E. coli K12; details: Table 3, K12-R
[19] = tested on: E. coli BL21; details: Table 3, BL21-WT

CC[C@H](C)[C@@H]1NC(=O)[C@H](CCCCN)NC(=O)[C@H](CC(C)C)NC(=O)[C@H]([C@@H](C)CC)NC(=O)[C@H](CCCCN)NC(=O)[C@H](CCCCN)NC(=O)[C@H]([C@@H](C)CC)NC(=O)[C@H](CC(C)C)NC(=O)[C@H](CCCCN)NC(=O)[C@H](CCCCN)NC(=O)[C@H](CCCNC(=N)N)NC(=O)CNC(=O)[C@@H]2CCCN2C(=O)CNC(=O)[C@H](CCCCN)NC(=O)[C@H](CCCCN)NC(=O)[C@H](CC(C)C)NC(=O)[C@H]([C@@H](C)CC)NC(=O)[C@H](CCCCN)NC(=O)[C@H](CCCCN)NC(=O)[C@H]([C@@H](C)CC)NC(=O)[C@H](CC(C)C)NC(=O)[C@H](CCCCN)NC(=O)[C@H]([C@@H](C)CC)NC(=O)[C@H](CC(C)C)NC(=O)[C@H](CCCNC(=N)N)NC(=O)CNC(=O)[C@@H]2CCCN2C(=O)CNC(=O)[C@H](CC(C)C)NC1=O [CYCLIC30P] (cyclo(GPGRKKLIKKILKILGPGRLIKLIKKILKK))
MIC-E. coli (μM) 25922 [1]: 12 (2) μM
MIC-E.Coli (μM) 25622 [1]: 12(2) μM

CC[C@H](C)[C@H](NC(=O)[C@H](CCCCN)NC(=O)[C@H](CC(C)C)NC(=O)[C@@H]1CSSC[C@H](NC(=O)[C@H](CC(C)C)NC(=O)[C@H](CCCCN)NC(=O)[C@@H](NC(=O)[C@@H](N)CC(C)C)[C@@H](C)CC)C(=O)N[C@@H](CCCCN)C(=O)N[C@@H](CCCCN)C(=O)N[C@@H]([C@@H](C)CC)C(=O)N[C@@H](CC(C)C)C(=O)N[C@@H](CCCCN)C(=O)N[C@@H](CCCCN)C(=O)NCC(=O)N2CCC[C@H]2C(=O)NCC(=O)N[C@@H](CCCNC(=N)N)C(=O)N[C@@H](CCCCN)C(=O)N[C@@H](CCCCN)C(=O)N[C@@H](CC(C)C)C(=O)N[C@@H]([C@@H](C)CC)C(=O)N[C@@H](CCCCN)C(=O)N[C@@H](CCCCN)C(=O)N1)C(=O)N[C@@H](CC(C)C)C(=O)O [CYS26P] (H-LIKLCKKILKKGPGRKKLIKKCLKIL-OH; disulfide 5-22)
MIC-E. coli (μM) 25922 [1]: 4.3 ± 0.4 µM (≈ 12.9 µg/mL)
MIC (μM) X. fastidiosa (PD strain) [2]: >20 µM
MIC-human bacteria (μM) Salmonella ([3]; Table 9 upper part, c5): >20 µM
MIC-human bacteria (μM) Pseudomonas WT ([4]; Table 9 upper part, c6): >20 µM
toxicity to human erythrocytes [5]: did not demonstrate toxicity
toxicity to HL60 cells [6]: did not demonstrate toxicity
phytotoxicity, viability of N. benthamiana mesophyll protoplasts [7]: low phytotoxcicity

CC[C@H](C)[C@H](NC(=O)[C@H](CCCCN)NC(=O)[C@H](CC(C)C)NC(=O)[C@@H](NC(=O)[C@H](CCCCN)NC(=O)[C@H](CCCCN)NC(=O)[C@@H](NC(=O)[C@H](CC(C)C)NC(=O)[C@H](CCCCN)NC(=O)[C@@H](N)CCCCN)[C@@H](C)CC)[C@@H](C)CC)C(=O)N[C@@H](CC(C)C)C(=O)NC [Peptide 11P3, KKLIKKILKIL-(NHCH3)] (H-KKLIKKILKIL-NHMe)
MIC-E. coli (μM) 25922 [1]: 3.7 ± 0.5 µM (≈ 5 µg/mL)

CC[C@H](C)[C@H](NC(=O)[C@H](CCCNC(=N)N)NC(=O)[C@H](CC(C)C)NC(=O)[C@@H](NC(=O)[C@H](CCCNC(=N)N)NC(=O)[C@H](CCCNC(=N)N)NC(=O)[C@@H](NC(=O)[C@H](CC(C)C)NC(=O)[C@H](CCCNC(=N)N)NC(=O)[C@@H](N)CCCNC(=N)N)[C@@H](C)CC)[C@@H](C)CC)C(=O)N[C@@H](CC(C)C)C(=O)NC [Peptide 11P5, RRLIRRILRIL-(NCH3)] (H-RRLIRRILRIL-NHMe; N-terminus and C-terminus assumed)
MIC-E. coli (μM) 25922 [1]: 6.7 ± 0.9 µM (≈ 9.99 µg/mL)

EALRSRLEKRIYILYRDTPVVKSSSRQREELLRISLRELE [Peptide 40P1]
MIC-E. coli (μM) 25922 [1]: >20 µM

ELLRRLLASLRRHDLLRGPGRELLRLLASLRRHDLLR [Peptide 38P1]
MIC-E. coli (μM) 25922 [1]: 2.5 to 5 µM

HPLIKLIKKILKKGPGRKKLIKKILKILGH [Peptide 30P1]
MIC-E. coli (μM) 25922 [1]: 0.9 to 1.25 µM

KEIVRRIEKFLRGPGRKRIVERIEKFLR [Peptide 28P8]
MIC-E. coli (μM) 25922 [1]: 0.8 ± 0.1 µM
MIC-plant (μm) Xylela fastidiosa (grape) [2]: 1.25-2.5(2) μM
MIC-E.Coli (μM) 14028 [8]: 5 to 10 µM
MIC-human (μm) Pseudomonas WT 27853 [4]: 5 to 10 µM

KEIVRRIKEFLRGPGRKEIVRRIKEFLR [Peptide 28P7]
MIC-E. coli (μM) 25922 [1]: 4.3 µM
MIC-E.Coli (μM) 25622 [1]: 4.3 µM
MIC-plant (μm) Xylela fastidiosa (grape) [2]: 2.5-5(2) μM
MIC-E.Coli (μM) 14028 [8]: 20 µM
MIC-human (μm) Pseudomonas WT 27853 [4]: 5 to 10 µM

KKLIKKILKIL [Peptide P11, KKLIKKILKIL]
MIC [9]: 192 ± 8.3 µM
MIC values ATCC [9]: 200 µM
MIC [10]: 194 ± 12.5 µM
MIC values BL21 ([10]; BL21): 194 µM
MIC (μM) X. fastidiosa (PD strain) [2]: 10 to 20 µM

KKLIKKILKILGPGRKKLIKEILKILGPGRKKLIKKILKIL [Peptide 41P1]
MIC-E. coli (μM) 25922 [1]: 4.50 ± 0.25 µM

KLIKLIKKILKKGPGRKKLIKKILKILK [Peptide 28P4]
% Xf clearance from bark by qPCR [11]: completely clear
% Xf clearance from green leaves by qPCR [11]: completely clear
MIC-E. coli (μM) 25922 [1]: 2.1 µM
MIC-E.Coli (μM) 25622 [1]: 2.1 µM
MIC (μM) X. fastidiosa (PD strain) [2]: 3.0 ± 0.1 µM
MIC-human (μm) Salmonella [3]: 1.3 µM
MIC-human (μm) Pseudomonas WT 27853 [4]: 1.3 µM
MIC-human (μm) Pseudomonas Resistant BAA-2114 [12]: 2.5 µM
MIC-plant (μm) Xanthomonas Perforans BAA983 [13]: 2.5 µM
MIC-plant (μm) Xanthomonas Euvesicatoria 11633 [14]: 2.5 µM

KLIRLIREILRRGPGRRRLIREILRILK [Peptide 28P6]
MIC-E. coli (μM) 25922 [1]: 4.8 µM
MIC-E.Coli (μM) 25622 [1]: 4.8 µM
MIC-plant (μm) Xylela fastidiosa (grape) [2]: 2.5-5(2) μM
MIC-E.Coli (μM) 14028 [8]: 20 µM
MIC-human (μm) Pseudomonas WT 27853 [4]: 5 to 10 µM

KRIVQRIKDFLRGPGRKRIVQRIKDFLR [Peptide 28P2]
MIC-E. coli (μM) 25922 [1]: 6 (2) μM
MIC-E.Coli (μM) 25622 [1]: 6(2) μM
MIC against one E. coli strain [15]: 6 µM
MICs for human and plant bacteria [15]: 1.3 to 3 µM
concentration toxic to human cells [16]: above 20 μM

KRLIQRKRLIQRGPGRKRLIQRKRLIQR [Peptide 28P3]
MIC-E. coli (μM) 25922 [1]: >40 µM
MIC-E.Coli (μM) 25622 [1]: >40 µM
MIC-human (μm) Salmonella [3]: >20 µM
MIC-human (μm) Pseudomonas WT 27853 [4]: >20 µM
MIC-human (μm) Pseudomonas Resistant BAA-2114 [12]: >20 µM
MIC-plant (μm) Xanthomonas Perforans BAA983 [13]: 20 µM
MIC-plant (μm) Xanthomonas Euvesicatoria 11633 [14]: 20 µM

LIKLIKKILKKGPGRKKLIKKILKIL [Peptide P26]
MIC ([1]; Table 3, ATCC-WT): 1.65 ± 0.3 µM
MIC-E. coli (μM) 25922 [1]: 1.7 ± 0.2 µM
MIC [9]: 9.5 ± 0.7 µM
MIC [17]: 1.65 ± 0.3 µM
MIC [18]: 4.0 ± 0.6 µM
MIC [19]: 1.95 ± 0.3 µM
MIC ([10]; BL21): 4.4 ± 0.3 µM
MIC (μM) X. fastidiosa (PD strain) [2]: 4.75 ± 0.25 µM
MIC-plant bacteria (μM) Xylela fastidiosa (grape) [2]: >20 µM
toxicity to human erythrocytes [5]: did not demonstrate toxicity
toxicity to HL60 cells [6]: did not demonstrate toxicity
phytotoxicity, viability of N. benthamiana mesophyll protoplasts [7]: low phytotoxcicity

LIRLIRRILRRGPGRRRLIRRILRIL [Peptide 26P2]
MIC-E. coli (μM) 25922 [1]: 1.3 to 2.5 µM

LIRLIRRILRRGPGRRRLIRRILRIL [Peptide 26P-1]
MIC values ATCC [9]: 10 µM
MIC values BL21 ([10]; BL21): 4 µM
MIC (μM) X. fastidiosa (PD strain) [2]: 4.75 µM

LIRLLRRILRRGPGRRRLIRRLLRIL [Peptide 26P3]
MIC-plant bacteria (μM) Xylela fastidiosa (grape) [2]: 4.8 µM

RKQLRELIERLLERIRKLGPGRREQLERLIERLERLIEKR [Peptide 40P3]
MIC-E. coli (μM) 25922 [1]: >20 µM

RLLEKRLRRELERELRKQGPGRRLLEKRLRRELERELRKQ [Peptide 40P2]
MIC-E. coli (μM) 25922 [1]: >20 µM

— patent publication US20220053773A1 (priority 2018, published 2022)
